# Source: ChEMBL document CHEMBL5696442, “Discovery of type II inhibitors of TGFβ-activated kinase 1 (TAK1) and mitogen-activated protein kinase kinase kinase kinase 2 (MAP4K2)” (J Med Chem, 2015)
# Legend:
# [1] = biological target: Serine/threonine-protein kinase WNK4 (Homo sapiens) (UniProt Q96J92); assay: Inhibition of Wnk4 K2 labeling site in human Huh-7 cells at 10 uM by KiNativ Profiling analysis relative to control; assay type: cell-based
# [2] = biological target: Tyrosine-protein kinase Fyn (Homo sapiens) (UniProt P06241); assay: Inhibition of FYN ACT labeling site in human Huh-7 cells at 1 uM by KiNativ Profiling analysis relative to control; assay type: cell-based
# [3] = biological target: T1, Phosphatidylinositol 5-phosphate 4-kinase type-2 gamma (Homo sapiens) (UniProt Q8TBX8); assay: Inhibition of PIP5K2C ATP labeling site harbouring VKELPTLKDMDFLNK in human Huh-7 cells at 10 uM by KiNativ Profiling analysis relative to control; assay type: cell-based
# T1 sequence (whole entry): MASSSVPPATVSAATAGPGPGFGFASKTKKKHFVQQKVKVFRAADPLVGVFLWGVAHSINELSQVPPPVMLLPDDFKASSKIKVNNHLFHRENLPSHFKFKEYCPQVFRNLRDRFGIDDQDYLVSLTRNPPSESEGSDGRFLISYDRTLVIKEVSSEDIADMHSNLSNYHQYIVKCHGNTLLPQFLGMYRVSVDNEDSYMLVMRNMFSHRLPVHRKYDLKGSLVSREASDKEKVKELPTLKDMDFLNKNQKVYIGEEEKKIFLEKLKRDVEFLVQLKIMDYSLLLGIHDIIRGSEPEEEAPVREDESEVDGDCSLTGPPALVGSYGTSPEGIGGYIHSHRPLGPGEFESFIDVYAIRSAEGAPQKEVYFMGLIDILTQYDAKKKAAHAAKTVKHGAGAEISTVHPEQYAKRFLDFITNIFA
# [4] = biological target: T2, Serine/threonine-protein kinase LATS1 (Homo sapiens) (UniProt O95835); assay: Inhibition of LATS1 Lys2 labeling site in human A-375 cells at 0.5 uM by KiNativ Profiling analysis relative to control; assay type: cell-based
# T2 sequence (whole entry): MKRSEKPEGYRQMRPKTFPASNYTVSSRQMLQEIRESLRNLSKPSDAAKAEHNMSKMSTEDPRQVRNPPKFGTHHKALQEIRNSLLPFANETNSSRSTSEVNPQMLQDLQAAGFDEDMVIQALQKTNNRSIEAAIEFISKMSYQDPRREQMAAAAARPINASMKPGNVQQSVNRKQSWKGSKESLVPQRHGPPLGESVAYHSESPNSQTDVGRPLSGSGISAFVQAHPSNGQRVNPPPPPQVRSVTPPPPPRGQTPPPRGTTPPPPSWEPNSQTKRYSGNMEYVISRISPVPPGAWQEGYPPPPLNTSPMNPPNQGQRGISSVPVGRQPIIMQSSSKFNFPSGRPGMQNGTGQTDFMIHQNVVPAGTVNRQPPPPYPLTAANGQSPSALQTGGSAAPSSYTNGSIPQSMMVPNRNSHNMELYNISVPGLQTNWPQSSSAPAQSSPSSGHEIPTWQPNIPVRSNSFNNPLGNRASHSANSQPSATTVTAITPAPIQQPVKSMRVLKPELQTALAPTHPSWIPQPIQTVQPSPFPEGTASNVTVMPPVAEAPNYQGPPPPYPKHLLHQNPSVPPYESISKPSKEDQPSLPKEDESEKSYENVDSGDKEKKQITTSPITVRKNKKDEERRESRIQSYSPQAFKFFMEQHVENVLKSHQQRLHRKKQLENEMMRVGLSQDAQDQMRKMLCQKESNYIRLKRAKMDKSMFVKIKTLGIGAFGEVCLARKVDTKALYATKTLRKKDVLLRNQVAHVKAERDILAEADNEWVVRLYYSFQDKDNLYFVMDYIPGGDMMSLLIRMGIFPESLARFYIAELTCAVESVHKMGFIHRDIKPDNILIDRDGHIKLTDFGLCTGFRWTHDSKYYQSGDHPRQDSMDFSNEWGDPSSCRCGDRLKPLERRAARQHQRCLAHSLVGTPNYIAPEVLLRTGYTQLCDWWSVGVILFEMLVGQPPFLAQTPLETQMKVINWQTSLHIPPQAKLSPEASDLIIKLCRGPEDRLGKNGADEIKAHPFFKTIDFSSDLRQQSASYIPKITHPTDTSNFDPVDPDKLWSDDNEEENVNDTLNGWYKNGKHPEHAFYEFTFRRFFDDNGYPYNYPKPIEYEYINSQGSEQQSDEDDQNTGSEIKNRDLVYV
# [5] = biological target: T3, Dual specificity mitogen-activated protein kinase kinase 6 (Homo sapiens) (UniProt P52564); assay: Inhibition of MAP2K6 K2 labeling site in human Huh-7 cells at 1 uM by KiNativ Profiling analysis relative to control; assay type: cell-based
# T3 sequence (whole entry): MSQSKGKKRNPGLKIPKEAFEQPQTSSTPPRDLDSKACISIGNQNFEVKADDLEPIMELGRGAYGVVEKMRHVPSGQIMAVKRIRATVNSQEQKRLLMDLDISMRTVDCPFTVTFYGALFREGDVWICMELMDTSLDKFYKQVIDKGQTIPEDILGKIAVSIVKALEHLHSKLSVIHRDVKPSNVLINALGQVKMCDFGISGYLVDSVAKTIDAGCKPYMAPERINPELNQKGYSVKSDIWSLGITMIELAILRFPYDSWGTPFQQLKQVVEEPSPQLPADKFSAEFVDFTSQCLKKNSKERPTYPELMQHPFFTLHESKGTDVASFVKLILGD
# [6] = biological target: Mitogen-activated protein kinase kinase kinase 4 (Homo sapiens) (UniProt Q9Y6R4); assay: Inhibition of MAP3K4 Lys2 labeling site in human Huh-7 cell lysate at 1 uM by KiNativ Profiling analysis relative to control; assay type: subcellular
# [7] = biological target: Mast/stem cell growth factor receptor Kit (Homo sapiens) (UniProt P10721); assay: Inhibition of KIT (unknown origin) at 1 uM by Ambit Kinomescan binding assay relative to control; values are per cent of control
# [8] = biological target: Calcium-dependent protein kinase 1 (Plasmodium falciparum) (UniProt P62344); assay: Inhibition of Plasmodium falciparum PFCDPK1 at 1 uM by Ambit Kinomescan binding assay relative to control; values are per cent of control
# [9] = biological target: Vascular endothelial growth factor receptor 3 (Homo sapiens) (UniProt P35916); assay: Inhibition of FLT4 (unknown origin) at 1 uM by Ambit Kinomescan binding assay relative to control; values are per cent of control
# [10] = biological target: Tyrosine-protein kinase JAK2 (Homo sapiens) (UniProt O60674); assay: Inhibition of JAK2 JH1catalytic domain (unknown origin) at 1 uM by Ambit Kinomescan binding assay relative to control
# [11] = biological target: Serine/threonine-protein kinase 4 (Homo sapiens) (UniProt Q13043); assay: Inhibition of MST1 Lys1 labeling site harbouring ETGQIVAIKQVPVESDLQEIIK in human A-375 cells at 0.05 uM by KiNativ Profiling analysis relative to control
# [12] = biological target: T1, Phosphatidylinositol 5-phosphate 4-kinase type-2 gamma (Homo sapiens); assay: Inhibition of PIP4K2C ATP labeling site harbouring VKELPTLKDMDFLNK in human A-375 cells at 5 uM by KiNativ Profiling analysis relative to control; assay type: cell-based
# Chain of Tyrosine-protein kinase JAK2 (Homo sapiens) (O60674 whole entry, the tested form may be a part): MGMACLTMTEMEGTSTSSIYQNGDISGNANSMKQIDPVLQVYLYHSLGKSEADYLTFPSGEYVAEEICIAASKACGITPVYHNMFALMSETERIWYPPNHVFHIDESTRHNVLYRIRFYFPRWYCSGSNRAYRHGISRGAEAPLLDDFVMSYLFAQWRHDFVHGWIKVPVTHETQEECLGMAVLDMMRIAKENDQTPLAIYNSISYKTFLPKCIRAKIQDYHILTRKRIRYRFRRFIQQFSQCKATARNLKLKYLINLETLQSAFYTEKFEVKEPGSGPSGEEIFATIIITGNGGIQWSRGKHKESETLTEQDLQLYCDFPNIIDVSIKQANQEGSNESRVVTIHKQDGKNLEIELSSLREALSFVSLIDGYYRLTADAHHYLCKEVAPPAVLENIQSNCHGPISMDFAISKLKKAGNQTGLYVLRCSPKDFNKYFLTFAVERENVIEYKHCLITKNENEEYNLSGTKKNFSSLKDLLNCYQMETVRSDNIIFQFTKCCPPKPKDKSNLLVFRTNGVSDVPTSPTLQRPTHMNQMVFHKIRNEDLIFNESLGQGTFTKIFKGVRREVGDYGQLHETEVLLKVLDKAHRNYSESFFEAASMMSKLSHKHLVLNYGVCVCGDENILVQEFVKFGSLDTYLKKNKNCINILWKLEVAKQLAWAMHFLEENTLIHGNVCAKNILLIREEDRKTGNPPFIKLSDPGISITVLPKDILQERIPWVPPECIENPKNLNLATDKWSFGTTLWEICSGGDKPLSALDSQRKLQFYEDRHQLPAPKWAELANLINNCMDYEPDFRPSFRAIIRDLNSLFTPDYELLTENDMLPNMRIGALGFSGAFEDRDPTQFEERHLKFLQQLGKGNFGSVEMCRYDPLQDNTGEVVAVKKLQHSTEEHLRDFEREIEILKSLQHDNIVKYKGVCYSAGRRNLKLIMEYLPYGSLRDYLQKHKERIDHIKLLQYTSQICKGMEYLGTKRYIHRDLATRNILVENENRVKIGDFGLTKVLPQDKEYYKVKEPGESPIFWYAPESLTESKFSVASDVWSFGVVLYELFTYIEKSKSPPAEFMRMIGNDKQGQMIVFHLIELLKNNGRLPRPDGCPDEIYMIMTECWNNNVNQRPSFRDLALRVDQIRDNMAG
# Chain of Mast/stem cell growth factor receptor Kit (Homo sapiens) (P10721 whole entry): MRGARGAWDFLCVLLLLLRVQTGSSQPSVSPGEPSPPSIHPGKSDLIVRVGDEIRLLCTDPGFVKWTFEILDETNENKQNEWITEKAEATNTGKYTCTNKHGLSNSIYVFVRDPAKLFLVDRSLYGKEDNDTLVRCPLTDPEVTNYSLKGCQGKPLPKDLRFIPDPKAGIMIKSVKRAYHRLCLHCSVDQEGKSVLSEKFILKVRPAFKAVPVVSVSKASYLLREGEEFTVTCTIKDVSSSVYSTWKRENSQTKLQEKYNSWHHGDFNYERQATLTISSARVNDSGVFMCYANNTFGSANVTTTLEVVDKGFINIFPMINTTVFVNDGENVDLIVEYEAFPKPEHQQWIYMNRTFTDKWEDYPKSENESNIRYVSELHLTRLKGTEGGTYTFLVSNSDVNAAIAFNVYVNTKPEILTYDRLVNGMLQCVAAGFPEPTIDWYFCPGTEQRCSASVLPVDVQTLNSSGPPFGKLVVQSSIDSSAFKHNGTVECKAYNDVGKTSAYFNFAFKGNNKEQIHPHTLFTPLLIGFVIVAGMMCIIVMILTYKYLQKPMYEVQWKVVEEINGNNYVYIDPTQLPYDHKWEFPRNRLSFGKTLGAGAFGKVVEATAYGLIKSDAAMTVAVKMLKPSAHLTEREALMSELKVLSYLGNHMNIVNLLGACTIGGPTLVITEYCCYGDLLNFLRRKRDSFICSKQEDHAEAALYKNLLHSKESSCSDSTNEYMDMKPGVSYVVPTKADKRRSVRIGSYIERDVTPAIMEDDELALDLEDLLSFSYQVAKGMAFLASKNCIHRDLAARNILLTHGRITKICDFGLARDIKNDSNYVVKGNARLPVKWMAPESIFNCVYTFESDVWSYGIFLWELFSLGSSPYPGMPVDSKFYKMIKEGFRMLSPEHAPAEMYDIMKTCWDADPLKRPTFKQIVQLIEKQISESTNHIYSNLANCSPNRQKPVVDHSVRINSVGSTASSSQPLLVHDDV
# Chain of Serine/threonine-protein kinase 4 (Homo sapiens) (Q13043 whole entry, looked up): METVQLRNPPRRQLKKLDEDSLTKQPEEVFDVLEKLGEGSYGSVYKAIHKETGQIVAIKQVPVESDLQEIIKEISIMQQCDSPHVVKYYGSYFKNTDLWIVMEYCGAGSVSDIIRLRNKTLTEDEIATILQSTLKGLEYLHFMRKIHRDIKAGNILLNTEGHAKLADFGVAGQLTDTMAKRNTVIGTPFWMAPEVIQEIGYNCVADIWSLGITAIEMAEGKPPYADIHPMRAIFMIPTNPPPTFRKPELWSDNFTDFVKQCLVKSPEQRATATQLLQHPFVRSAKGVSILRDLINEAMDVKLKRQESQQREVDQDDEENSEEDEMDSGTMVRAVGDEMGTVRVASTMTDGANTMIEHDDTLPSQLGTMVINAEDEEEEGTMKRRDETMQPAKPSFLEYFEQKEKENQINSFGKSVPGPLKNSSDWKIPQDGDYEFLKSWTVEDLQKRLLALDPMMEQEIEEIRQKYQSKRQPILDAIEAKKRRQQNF
# Chain of Tyrosine-protein kinase Fyn (Homo sapiens) (P06241 2-537 limits assumed): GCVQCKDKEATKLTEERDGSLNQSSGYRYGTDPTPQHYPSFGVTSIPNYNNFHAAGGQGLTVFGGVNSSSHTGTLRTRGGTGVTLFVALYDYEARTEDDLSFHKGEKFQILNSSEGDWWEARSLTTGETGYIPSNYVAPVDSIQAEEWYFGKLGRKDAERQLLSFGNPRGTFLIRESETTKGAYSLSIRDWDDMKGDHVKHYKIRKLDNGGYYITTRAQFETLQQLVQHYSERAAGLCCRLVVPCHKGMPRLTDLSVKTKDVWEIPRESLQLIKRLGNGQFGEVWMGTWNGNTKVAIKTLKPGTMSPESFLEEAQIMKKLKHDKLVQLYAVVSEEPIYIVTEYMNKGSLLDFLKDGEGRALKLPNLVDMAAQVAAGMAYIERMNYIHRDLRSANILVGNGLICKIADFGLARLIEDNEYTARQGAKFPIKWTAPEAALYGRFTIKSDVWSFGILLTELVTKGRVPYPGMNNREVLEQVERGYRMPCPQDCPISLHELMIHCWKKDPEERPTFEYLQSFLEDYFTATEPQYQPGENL
# Chain of Calcium-dependent protein kinase 1 (Plasmodium falciparum) (P62344 2-524 limits assumed): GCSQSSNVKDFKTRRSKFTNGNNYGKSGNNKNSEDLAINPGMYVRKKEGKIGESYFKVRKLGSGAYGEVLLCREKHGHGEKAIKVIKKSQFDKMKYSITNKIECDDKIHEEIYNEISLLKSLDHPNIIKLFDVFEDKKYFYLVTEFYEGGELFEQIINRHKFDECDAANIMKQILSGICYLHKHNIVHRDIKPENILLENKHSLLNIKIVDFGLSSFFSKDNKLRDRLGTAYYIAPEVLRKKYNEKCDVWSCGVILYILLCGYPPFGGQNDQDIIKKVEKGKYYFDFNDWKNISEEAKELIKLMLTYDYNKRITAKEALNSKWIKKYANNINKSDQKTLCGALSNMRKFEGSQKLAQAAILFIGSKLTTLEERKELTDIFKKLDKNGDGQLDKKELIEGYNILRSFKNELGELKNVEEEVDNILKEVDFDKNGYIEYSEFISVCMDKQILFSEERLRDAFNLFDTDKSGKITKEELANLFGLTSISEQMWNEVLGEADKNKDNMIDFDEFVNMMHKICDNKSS
# Chain of Vascular endothelial growth factor receptor 3 (Homo sapiens) (P35916 whole entry, the tested form may be a part): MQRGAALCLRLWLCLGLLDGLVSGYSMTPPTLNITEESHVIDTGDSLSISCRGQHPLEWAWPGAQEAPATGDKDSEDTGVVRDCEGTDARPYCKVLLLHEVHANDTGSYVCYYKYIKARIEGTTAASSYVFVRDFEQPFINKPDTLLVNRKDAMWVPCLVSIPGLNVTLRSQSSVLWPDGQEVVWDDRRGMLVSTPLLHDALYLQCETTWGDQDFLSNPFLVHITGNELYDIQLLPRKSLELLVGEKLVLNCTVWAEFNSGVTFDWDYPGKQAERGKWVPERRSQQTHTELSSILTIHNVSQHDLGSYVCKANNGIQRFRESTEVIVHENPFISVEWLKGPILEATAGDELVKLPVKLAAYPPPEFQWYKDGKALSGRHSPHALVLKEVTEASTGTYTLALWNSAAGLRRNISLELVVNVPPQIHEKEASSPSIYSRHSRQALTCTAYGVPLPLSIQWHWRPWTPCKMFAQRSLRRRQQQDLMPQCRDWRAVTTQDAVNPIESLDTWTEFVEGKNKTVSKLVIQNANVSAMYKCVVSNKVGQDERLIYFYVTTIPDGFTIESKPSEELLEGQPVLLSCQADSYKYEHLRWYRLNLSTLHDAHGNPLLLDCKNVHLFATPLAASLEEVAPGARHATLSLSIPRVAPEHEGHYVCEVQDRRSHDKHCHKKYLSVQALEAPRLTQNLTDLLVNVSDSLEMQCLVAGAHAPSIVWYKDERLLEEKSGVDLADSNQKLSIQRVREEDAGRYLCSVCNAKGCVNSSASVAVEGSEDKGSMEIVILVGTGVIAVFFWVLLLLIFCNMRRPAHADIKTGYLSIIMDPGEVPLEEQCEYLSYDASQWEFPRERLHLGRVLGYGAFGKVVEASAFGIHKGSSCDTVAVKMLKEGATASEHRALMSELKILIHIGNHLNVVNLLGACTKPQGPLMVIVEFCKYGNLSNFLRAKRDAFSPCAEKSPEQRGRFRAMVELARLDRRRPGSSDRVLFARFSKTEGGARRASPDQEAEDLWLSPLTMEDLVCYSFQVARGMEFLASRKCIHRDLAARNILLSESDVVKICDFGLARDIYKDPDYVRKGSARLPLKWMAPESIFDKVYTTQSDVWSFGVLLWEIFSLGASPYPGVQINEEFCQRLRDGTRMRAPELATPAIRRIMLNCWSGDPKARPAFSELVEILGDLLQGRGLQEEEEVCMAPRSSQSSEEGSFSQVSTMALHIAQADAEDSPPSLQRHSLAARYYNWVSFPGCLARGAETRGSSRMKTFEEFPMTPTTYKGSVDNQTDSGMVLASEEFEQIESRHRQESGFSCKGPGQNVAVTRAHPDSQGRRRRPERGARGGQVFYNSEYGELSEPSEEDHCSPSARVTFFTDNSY
smiles,measurement,setting,value
CCN1CCN(Cc2ccc(NC(=O)c3ccc(C)c(Oc4ccnc5[nH]ccc45)c3)cc2C(F)(F)F)CC1,inhibition,[1],-1.5%
same,inhibition,[2],-0.3%
same,inhibition,[3],11.6%
same,inhibition,[4],-1.1%
same,inhibition,[5],-7.1%
CNc1cc(Oc2cc(C(=O)Nc3cc(N4CCN(C)CC4)cc(C(F)(F)F)c3)ccc2C)ncn1,inhibition,[6],0.5%
CCN1CCN(Cc2ccc(NC(=O)c3ccc(C)c(/C=C/c4cnc5[nH]ccc5c4OC)c3)cc2C(F)(F)F)CC1,residual activity,[7],0.3%
same,residual activity,[8],4.3%
same,residual activity,[9],26%
same,inhibition,[10],32%
same,inhibition,[11],11.9%
same,inhibition,[12],8.5%
